How the values were obtained:
Denosumab (hIgG2) = assay: Small bioconjugation handle installation to other IgGs (Q-ToF LC-MS); assay type: biochemical, human; conditions: 20 equivalents, room temperature, HEPES pH 8.5
Method: (§1) First, the electrophile-attached Z33 peptide reagent was dissolved in water to prepare a 2 mg/mL solution.
as §1

Mouse IgG1 = assay: as above; assay type: biochemical; conditions: 20 equivalents, room temperature
Method: Reactions were performed on a 10 μL scale using 0.2 mL PCR tubes (FIG. 64). First, the electrophile-attached Z33 peptide reagent was dissolved in water to prepare a 2 mg/mL solution. IgG (human WN1 (prepared as previously described (ChemBioChem, 19, 2039-2044 (2018)), denosumab (Invitrogen), dupilumab (Invitrogen), or mouse IgG1 (Invitrogen, subtype controlled)), electrophile-attached Z33 peptide reagent (2 mg/mL), HEPES buffer (pH 8.5), and NaCl solution were added to achieve final concentrations of 5 μM, 100 μM, 100 mM, and 200 mM. The contents were mixed using a 5 μL pipette and incubated at room temperature in the dark for 24 hours. The resulting reaction solution was quenched with a 100 mM Tris buffer and analyzed by LC-MS (FIGS. 53A to 53D, Table 10). Sample preparation for LC-MS analysis was performed in the same manner as previously described.
Reactions were performed on a 10 μL scale using 0.2 mL PCR tubes. First, the electrophile-attached Z33 peptide reagent was dissolved in water to prepare a 2 mg/mL solution. Denosumab (Invitrogen), dupilumab (Invitrogen), or mouse IgG1 (Invitrogen, subtype controlled)), electrophile-attached Z33 peptide reagent (2 mg/mL), HEPES buffer (pH 8.5), and NaCl solution were added to achieve final concentrations of 5 μM, 100 μM, 100 mM, and 200 mM. […] The resulting reaction solution was quenched with a 100 mM Tris buffer and analyzed by LC-MS. […]

mouse IgG [1] = assay: Azido transfer to mouse IgG in vivo (E1/E2 ELISA of serum); conditions: subcutaneous injection of 30 mg/kg, WT Swiss mice, serum at 24 h, listed as N3-2-I
Method: To evaluate the in vivo azido transfer in mice, two groups of mice were injected subcutaneously or intraperitoneally with the IgG-binder peptides. Mice were sacrificed at 24 hours post-injection, and the blood was collected for ELISA analysis. Sandwich ELISA assays. […] The percentage azido transfer was also compared with intraperitoneal injection of 10 mg/kg Z33-E20Hcy, intraperitoneal injection of 30 mg/kg of Z33-E20Hcy, subcutaneous injection of 30 mg/kg Z33-E20Hcy, and intraperitoneal injection of 30 mg/kg pegylated-Z33-E20Hcy (FIG. 2D).
Two sandwich ELISA assays have been developed in-house, one for the detection of the azido moiety conjugated mouse IgG (mIgG, E1), the other one for the detection of the whole mIgGs (modified and unmodified) in the sample (E2). Both E1 and E2 were run simultaneously on a same plate, using the same initial stock sample, and were processed in parallel at the same time for every steps. […] Absorbances were measured at 450 nm and 540 nm (A0=A450 nm-A540 nm) using a Spark microplate reader (Tecan, USA). The background noise (Ablank) from the serum was subtracted to get the final absorbance of the sample (Asample=A0-Ablank). The ratio Asample (E1)/Asample (E2) was calculated to estimate the percentage of azido transfer on the total amount of IgG in the sample. […]

[2] = Whole-body biodistribution of [89Zr]Zr-labelled affinity peptides after subcutaneous injection (gamma counter); conditions: mouse, in vivo, sc
Method: Additionally, 4 mice were sacrificed at each of these time points for determining the distribution in each organ using a gamma counter.
First, 1, 2, 3 were dissolved in HEPES buffer (100 mM in ultra-trace elemental water; Fisher Scientific, pH 6.7) to prepare a 2 mg/mL solution of each.
The obtained samples were incubated with 37 MBq of [^89Zr]Zr-oxalate (obtained from Mallinckrodt Institute of Radiology, Nuclear Pharmacy Cyclotron; dilution in 0.5 M HEPES, pH 6.7) for 1 hour in the wet ice under mild agitation. Purification was then performed using a Zeba spin column (0.5 mL, 7K MWCO) to remove the non-complexed [^89Zr]Zr-oxalate, for 5 min at 1,200 rcf. Instant-thin layer chromatography (iTLC) was performed to verify the success of the radiolabeling with elution in 0.1 M citrate buffer.

Trastuzumab = molecular target: T1, Trastuzumab (Homo sapiens, UniProt P01857, D239E/L241M); assay: Bioconjugation handle / GLP1 transfer to trastuzumab, analyzed by Q-ToF LC-MS; assay type: biochemical; conditions: 10 equivalents, 100 mM HEPES pH 8.5, room temperature, 24 h
T1 construct: purchased Syd Labs Inc; MedChemExpress LLC; Bio X Cell

mouse IgG [3] = assay: Azido transfer to mouse IgG in mouse serum (E1/E2 sandwich ELISA); assay type: biochemical; conditions: after 2 h of incubation in mouse sera
Excerpt: Two sandwich ELISA assays have been developed in-house, one for the detection of the azido moiety conjugated mouse IgG (mIgG, E1), the other one for the detection of the whole mIgGs (modified and unmodified) in the sample (E2). Both E1 and E2 were run simultaneously on a same plate, using the same initial stock sample, and were processed in parallel at the same time for every steps. The same azido-free capture goat anti-mouse polyclonal antibody (Creative Diagnostics) was used for both E1-E2 assays at 1 μg/mL (100 μL per well) for incubation overnight at 4° C. Washing steps were performed thoroughly between each incubation by using 0.02% Tween 20-PBS. […] Absorbances were measured at 450 nm and 540 nm (A0=A450 nm-A540 nm) using a Spark microplate reader (Tecan, USA). The background noise (Ablank) from the serum was subtracted to get the final absorbance of the sample (Asample=A0-Ablank). The ratio Asample (E1)/Asample (E2) was calculated to estimate the percentage of azido transfer on the total amount of IgG in the sample.
Two sandwich ELISA assays have been developed in-house, one for the detection of the azido moiety conjugated mouse IgG (mIgG, E1), the other one for the detection of the whole mIgGs (modified and unmodified) in the sample (E2). […] Absorbances were measured at 450 nm and 540 nm (A0=A450nm−A540nm) using a Spark microplate reader (Tecan, USA). […]

Chain of Mouse IgG1 (P01868 98-324 limits assumed): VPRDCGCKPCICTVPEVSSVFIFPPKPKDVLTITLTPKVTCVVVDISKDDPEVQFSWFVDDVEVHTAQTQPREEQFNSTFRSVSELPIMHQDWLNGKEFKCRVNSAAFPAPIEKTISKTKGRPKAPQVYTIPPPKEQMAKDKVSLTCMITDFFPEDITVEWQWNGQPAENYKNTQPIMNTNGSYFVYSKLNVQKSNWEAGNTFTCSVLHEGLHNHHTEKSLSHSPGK
T1 sequence (P01857 with tags, fused parts or gaps isoform P01857-1 D239E/L241M, other chains not shown): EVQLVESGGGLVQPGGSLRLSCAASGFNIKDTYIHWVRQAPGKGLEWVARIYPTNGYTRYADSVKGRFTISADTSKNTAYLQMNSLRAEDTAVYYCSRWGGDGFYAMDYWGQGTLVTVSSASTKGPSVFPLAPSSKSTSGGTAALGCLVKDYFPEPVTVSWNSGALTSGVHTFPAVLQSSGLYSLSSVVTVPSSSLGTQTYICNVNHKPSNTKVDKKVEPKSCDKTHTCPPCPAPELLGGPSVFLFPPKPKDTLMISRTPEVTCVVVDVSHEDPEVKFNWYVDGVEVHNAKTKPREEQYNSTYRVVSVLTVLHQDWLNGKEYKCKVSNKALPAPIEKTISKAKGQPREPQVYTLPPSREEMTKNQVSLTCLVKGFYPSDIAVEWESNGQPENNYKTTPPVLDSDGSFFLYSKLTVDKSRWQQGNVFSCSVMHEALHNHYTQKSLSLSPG

FNMQQQRRFYEALHD PNLNHcyEQRNAKIKSI RDD [PEL-21]
Light chain total conversion (Denosumab (hIgG2)): 1% | Light chain total conversion (Mouse IgG1; HEPES pH 8.5, first column so headed): 2% | Light chain total conversion (Mouse IgG1; HEPES pH 8.5, second column so headed): 69% | Azido transfer to mouse IgG in vivo (conversion rate) (mouse IgG [1]): 33±12% | Time detectable in the kidneys [2]: up to 240 hours | Light chain total conversion (Trastuzumab): 5% | IgG conversion rate in mouse sera (mouse IgG [3]): 33±1%
